Experimental findings from US9206136B2, “Pyrazolyl-based carboxamides I” (Grünenthal GmbH, priority 2013, dated 2015) are described below.

In general, IC50 refers to the concentration at which inhibition is half-maximal.

The structures appear in SMILES notation.

The test system of test [1] is Interleukin-2 (IL-2) production/release in Jurkat T cell line clone E6-1. Briefly: Jurkat IL-2 Production Assay. As to conditions: Homo sapiens; Jurkat T cells stimulated with 15 μg/ml PHA for 22 hours; IL-2 in supernatant (AlphaLisa). The test is classed as cell-based. As to the method:
Jurkat IL-2 Production Assay
The effect of compounds of the invention on Interleukin-2 (IL-2) production/release was tested in the Jurkat T cell line (ECACC) clone E6-1.
Jurkat T cells were cultured in DMEM/F12/Glutamax (Gibco) containing 10% FCS (Gibco), and maintained at 37° C., 5% CO2. Cells were split twice a week [5·10^6 (Mon-Thu) and 1·10^7 (Thu-Mon) cells/50 ml medium in T-175 ZK culture flasks, respectively].
Prior to experiment, cells were seeded on 96 well plates (Cellstar 96 Well; Cat No. 655180, Greiner bio-one) at a density of 5·10^5 cells/well in DMEM/F12/Glutamax (Gibco) containing 10% FCS (Gibco), and incubated for 60 min at 37° C., 5% CO2. Subsequently, compounds were added and cells were allowed to incubate for 30 min at 37° C., 5% CO2. Cells were then stimulated with 15 μg/ml Phyto-hemagglutinin (PHA; Sigma) for 22 hours at 37° C., 5% CO2.
Before sampling of the supernatants, cells were spun down (200*g/5 min/RT). The amount of IL-2 released into the supernatant was quantified with the human IL-2 AlphaLisa kit (Perkin Elmer) according to manufacturer's instructions. Luminescence proximity measurements were carried out in the Synergy H4 reader (BioTek) employing the fluorescence setting of the reader (ex: 680/30 nm; em: 620/40 nm).
Inhibition of IL-Production/Release in/from Jurkat T Cells Cells was Quantified as Follows:
Zero percent inhibition (MAX) was defined as the [IL-2] determined in supernatants derived from cells to which PHA & DMSO-only had been added instead of compound. Hundred percent inhibition (MIN) was defined as the [IL-2] determined in supernatants derived from cells that had been pre-treated with 1 μM CyclosporineA (Sigma) before the addition of 15 μg/ml PHA.
For routine IC50 determinations of compounds, 8 concentrations of a serial dilution (1:3.16) were tested, starting off from 10 μM.
In general terms: Alpha assays give light when donor and acceptor beads are brought close together.

For test [2], the target named is T1, CRAC channel (endogenous SOC in HEK293 cells) (Homo sapiens, UniProt Q96D31).
T1 construct: host or cells: HEK293
Briefly: HEK Calcium Influx Assay (FLIPR). The test is classed as cell-based. As to conditions: 10 μM compound, thapsigargin store depletion, Ca2+ signal 9.5-10 min post-administration, read-out: % inhib. [@ 10 μM] FLIPR. Here is the method:
Compounds of the invention have been tested for their effects on CRAC channels according to the following or similar procedures.
The effect of compounds of the invention on intracellular [Ca^2+] was tested in the HEK293 cell line (ECACC).
HEK293 cells were cultured in DMEM/F12/Glutamax (Gibco) containing 10% FCS (Gibco), and maintained at 37° C., 5% CO2. Cell were split twice a week [3·10^6 (Mon-Thu) and 1·10^6 (Thu-Mon) cells/50 ml medium in T-175 ZK culture flasks, respectively]. 24 hours pre-experiment, cells were seeded on 96 well plates (Poly-D-Lysine 96well Black/Clear Plate, BD Biocoat REF 356640) at a density of 40,000 cells/well in DMEM/F12 (Gibco) containing 10% FCS (Gibco), and maintained at 37° C., 5% CO2.
Prior to store-depletion, cell culture medium was removed and cells were loaded with the a Ca^2+-sensitive fluorescent dye comprised within the Calcium-4-assay kit (Molecular Devices) in nominally Ca^2+-free HBS buffer (140 mM NaCl, 4 mM KCl, 0.2 mM MgCl2, 11 mM D-glucose, and 10 mM HEPES, pH 7.4) according to manufacturer's instruction for 60 min at 37° C., 5% CO2.
Passive depletion of intracellular Ca^2+-stores was then triggered by employing the SERCA inhibitor thapsigargin (2 μM final) for 10 min in the dark (rt). To prevent immediate Ca^2+-entry via the activated Store-operated channels (SOCs), cells were maintained in Ca^2+-free HBS buffer comprising 100 μM EGTA during store-depletion.
Intracellular changes in [Ca^2+] were subsequently monitored with the FLIPR device (Molecular Devices). In brief, baseline imaging post-store depletion was allowed for 1 min before adjusting the extracellular buffer to 3 mM CaCl2. Increases in intracellular [Ca^2+] due to pre-activated SOC channels were monitored for 15 min until intracellular Ca^2+ levels had declined into a steady-state. Finally, compounds were administered and Ca^2+ signals were recorded for additional 10 min.
Inhibition of endogenous SOC in HEK293 cells was quantified employing the average Ca^2+ signal measured from 9.5-10 min post-administration. Zero percent inhibition (MAX) was defined as the Ca^2+ signal recorded from wells to which DMSO-only had been added instead of compound. Hundred percent inhibition (MIN) was defined as the signal obtained from wells in which cells haven't been treated with TG prior to Ca^2+ addition and to which DMSO-only had been added instead of compound. For routine IC50 determinations of compounds, 8 concentrations of a serial dilution (1:3.16) were tested, starting off from 10 μM. Reliable IC50's could consequently be determined only, if they were at least sub 2.5-3 μM.

T1 sequence (Q96D31 whole entry): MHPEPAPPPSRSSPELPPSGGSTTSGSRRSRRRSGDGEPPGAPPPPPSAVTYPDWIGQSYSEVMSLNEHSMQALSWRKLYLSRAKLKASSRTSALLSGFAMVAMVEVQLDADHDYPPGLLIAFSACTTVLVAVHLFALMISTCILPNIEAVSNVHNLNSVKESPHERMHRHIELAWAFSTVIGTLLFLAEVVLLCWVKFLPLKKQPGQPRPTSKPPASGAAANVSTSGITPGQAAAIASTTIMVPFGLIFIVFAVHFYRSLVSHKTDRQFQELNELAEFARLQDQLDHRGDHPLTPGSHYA

`Cn1nc(C(=O)Nc2ccncc2F)cc1-c1ccc(C2CC2)cc1OC(F)(F)F` [Example 41, 5-[4-Cyclopropyl-2-(trifluoromethyloxy)-phenyl]-N-(3-fluoro-pyridin-4-yl)-1-methyl-1H-pyrazole-3-carboxylic acid amide]: in test [1], the IC50 lay within 1 to 5 µM. In addition, in test [2], the inhibition at 10 µM is greater than 70%.

Take `Cc1ccc(-c2ncco2)cc1-c1c(N)c(C(=O)Nc2c(F)cncc2F)nn1C` [Example 43, 4-Amino-N-(3,5-difluoro-pyridin-4-yl)-1-methyl-5-(2-methyl-5-oxazol-2-yl-phenyl)-1H-pyrazole-3-carboxylic acid amide]: in test [1], the IC50 lay in the range of 1 to 5 µM. Besides, in test [2], the inhibition at 10 µM was less than 50%.

As for `COc1ccc(-c2nccs2)cc1-c1c(N)c(C(=O)Nc2c(F)cccc2F)nn1C` [Example 44, 4-Amino-N-(2,6-difluoro-phenyl)-5-(2-methoxy-5-thiazol-2-yl-phenyl)-1-methyl-1H-pyrazole-3-carboxylic acid amide], the IC50 in test [1] fell in the range of 1 to 5 µM. Moreover, the inhibition at 10 µM in test [2] was less than 50%.

On to `COc1ccc(-c2ncco2)cc1-c1c(N)c(C(=O)Nc2c(F)cncc2F)nn1C` [Example 45, 4-amino-N-(3,5-difluoropyridin-4-yl)-5-(2-methoxy-5-(oxazol-2-yl)phenyl)-1-methyl-1H-pyrazole-3-carboxamide], for which the IC50 in test [1] is 1 to 5 µM. Further, the inhibition at 10 µM in test [2] is less than 50%.

On to `COc1ccc(-c2ncco2)cc1-c1c(N)c(C(=O)Nc2c(F)cccc2F)nn1C` [Example 46, 4-amino-N-(2,6-difluorophenyl)-5-(2-methoxy-5-(oxazol-2-yl)phenyl)-1-methyl-1H-pyrazole-3-carboxamide], for which the IC50 in test [1] is 1 to 5 µM. Further, in test [2], the inhibition at 10 µM is less than 50%.

For the molecule `COc1ccc(-c2nccs2)cc1-c1c(N)c(C(=O)Nc2c(F)cncc2F)nn1C` [Example 47, 4-amino-N-(3,5-difluoropyridin-4-yl)-5-(2-methoxy-5-(thiazol-2-yl)phenyl)-1-methyl-1H-pyrazole-3-carboxamide], the IC50 in test [1] lay in the range of 1 to 5 µM. Also, in test [2], the inhibition at 10 µM was less than 50%.

Consider `COc1ccc(C2=NOC(C)(C)C2=O)cc1-c1cc(C(=O)Nc2c(F)cccc2F)nn1C` [Example 48], for which the IC50 in test [1] fell in the range of 0.5 to 1 µM. The inhibition at 10 µM in test [2] was less than 50%.

Regarding `Cn1nc(C(=O)Nc2c(F)cccc2F)c(N)c1-c1cc(-c2ncco2)ccc1OC(F)(F)F` [Example 49, 4-amino-N-(2,6-difluorophenyl)-1-methyl-5-(5-(oxazol-2-yl)-2-(trifluoromethoxy)phenyl)-1H-pyrazole-3-carboxamide], the IC50 in test [1] fell in the range of 0.5 to 1 µM. In addition, the inhibition at 10 µM in test [2] lay within 50 to 70%.

In the case of `Cn1nc(C(=O)Nc2c(F)cncc2F)c(N)c1-c1cc(-c2ncco2)ccc1OC(F)(F)F` [Example 50, 4-amino-N-(3,5-difluoropyridin-4-yl)-1-methyl-5-(5-(oxazol-2-yl)-2-(trifluoromethoxy)phenyl)-1H-pyrazole-3-carboxamide], the IC50 in test [1] is 1 to 5 µM. Moreover, in test [2], the inhibition at 10 µM is less than 50%.
